One data set has as its system Fusarium oxysporum. Put plainly: Antifungal activity against Fusarium oxysporum ATCC 48112 after 48 hrs. As to conditions: ATCC 48112, 48 h. In kind it is functional.
A further data set has as its system Aspergillus flavus. In words: Antifungal activity against Aspergillus flavus ATCC 204304 after 48 hrs. As to conditions: ATCC 204304, 48 h. In kind it is functional.
Data set [1] deals with Trichophyton mentagrophytes. In words: Antifungal activity against Trichophyton mentagrophytes ATCC 24198 after 6 days. In kind it is functional. The note with it: ATCC 24198, 144 h.
Data set [2] deals with Candida tropicalis. Put plainly: Antifungal activity against Candida tropicalis CECT 11901 after 24 hrs. The note with it: CECT 11901, 24 h.
A further data set concerns Aspergillus terreus. In words: Antifungal activity against Aspergillus terreus CDC 317 after 48 hrs. The note with it: CDC 317, 48 h. In kind it is functional.
The nature of data set [3]: Selectivity index, ratio of IC50 for african green monkey Vero cells to IC50 for Candida lusitaniae ATCC 200951. It is filed as toxicity, cell-based. As to conditions: read-out: Ratio IC50.
Another data set relates to Clavispora lusitaniae. Put plainly: Antifungal activity against Candida lusitaniae ATCC 200951 after 24 hrs. It is filed as functional. As to conditions: ATCC 200951, 24 h.
The nature of data set [4]: Selectivity index, ratio of IC50 for african green monkey Vero cells to IC50 for Aspergillus fumigatus ATCC 204305. It is filed as toxicity, cell-based. As to conditions: read-out: Ratio IC50.
The nature of data set [5]: Selectivity index, ratio of IC50 for african green monkey Vero cells to IC50 for Trichophyton mentagrophytes ATCC 24198. In kind it is toxicity, cell-based. The note with it: read-out: Ratio IC50.
Data set [6] deals with Candida tropicalis. Put plainly: Antifungal activity against Candida tropicalis ATCC 200956 after 24 hrs. It is filed as functional. As to conditions: ATCC 200956, 24 h.
The test system of the next data set is Aspergillus niger. Put plainly: Antifungal activity against Aspergillus niger ATCC 16404 after 48 hrs. In kind it is functional. The note with it: ATCC 16404, 48 h.
In another data set the test system is Vero. Put plainly: Cytotoxicity against african green monkey Vero cells after 48 hrs by MTT assay. In kind it is cell-based. The note with it: Chlorocebus sabaeus. On the technique in general: Tetrazolium assays rely on reduction of a dye to a coloured formazan, in cell work by metabolically active cells.
Data set [7] concerns Candida albicans. Put plainly: Antifungal activity against Candida albicans ATCC 90028 after 24 hrs. The note with it: ATCC 90028, 24 h. It is filed as functional.
Data set [8] relates to Candida parapsilosis. Put plainly: Antifungal activity against Candida parapsilosis ATCC 22019 after 24 hrs. In kind it is functional. The note with it: ATCC 22019, 24 h.
The subject of the next data set is Pichia kudriavzevii. In words: Antifungal activity against Candida krusei ATCC 6258 after 24 hrs. In kind it is functional. The note with it: ATCC 6258, 24 h.
The subject of another data set is Aspergillus fumigatus. Put plainly: Antifungal activity against Aspergillus fumigatus ATCC 204305 after 48 hrs. The note with it: ATCC 204305, 48 h. It is filed as functional.
Another data set deals with Trichophyton rubrum. Put plainly: Antifungal activity against Trichophyton rubrum ATCC 28188 after 6 days. In kind it is functional. The note with it: ATCC 28188, 144 h.
The test system of data set [9] is Candida albicans. Put plainly: Antifungal activity against Candida albicans ATCC 10231 after 24 hrs. It is filed as functional. The note with it: ATCC 10231, 24 h.
Data set [10] in a line: Selectivity index, ratio of IC50 for african green monkey Vero cells to IC50 for Candida krusei ATCC 6258. In kind it is toxicity, cell-based. The note with it: read-out: Ratio IC50.
Data set [11] in a line: Selectivity index, ratio of IC50 for african green monkey Vero cells to IC50 for Trichophyton rubrum ATCC 28188. The note with it: read-out: Ratio IC50. In kind it is toxicity, cell-based.
A short description of data set [12]: Selectivity index, ratio of IC50 for african green monkey Vero cells to IC50 for Aspergillus flavus ATCC 204304. The note with it: read-out: Ratio IC50. It is filed as toxicity, cell-based.
The test system of data set [13] is Candida parapsilosis. Put plainly: Antifungal activity against Candida parapsilosis ATCC 22019 at > MIC up to 24 hrs by time kill study. In kind it is functional, organism-based.
Data set [14] concerns Candida parapsilosis. Put plainly: Antifungal activity against Candida parapsilosis ATCC 22019 at 0.5 MIC up to 24 hrs by time kill study. It is filed as functional, organism-based.
The nature of data set [15]: Selectivity index, ratio of IC50 for african green monkey Vero cells to IC50 for Candida parapsilosis ATCC 22019. In kind it is toxicity, cell-based.

SMILES strings stand for the structures. ≈ marks a conversion by molar mass, not a printed value. Calls of active or inactive are those of the source. The calls are words filed in the database; no cut-off is given here. Some results are limits rather than exact numbers.

As usually defined, the MIC90 is the lowest concentration that inhibits either 90% of growth or 90% of the strains tested, depending on the study. As a reminder, the IC50 is the concentration at which inhibition is half-maximal. `CC(=O)NC1=C(Cl)C(=O)c2cc3c(cc2C1=O)CCCC3(C)C`: the MIC90 was 32 µg/mL (≈ 96.4 µM) against Fusarium oxysporum; more than 32 µg/mL against Aspergillus flavus; 3.2 µg/mL (≈ 9.64 µM) in [1]; 6.4 µg/mL (≈ 19.3 µM) in the data set on Candida tropicalis [2]; more than 32 µg/mL in the data set with Aspergillus terreus; 2.2 µg/mL (≈ 6.63 µM) in the data set on Clavispora lusitaniae. The MIC90 is 4 µg/mL (≈ 12.1 µM) in the data set with Candida tropicalis [6]; more than 32 µg/mL with Aspergillus niger; 8 µg/mL (≈ 24.1 µM) in the data set on Candida albicans [7]; 8 µg/mL (≈ 24.1 µM) against Candida parapsilosis [8]; 2.8 µg/mL (≈ 8.44 µM) against Pichia kudriavzevii; 22.6 µg/mL (≈ 68.1 µM) against Aspergillus fumigatus. Moreover, the MIC90 was 5 µg/mL (≈ 15.1 µM) in the data set on Trichophyton rubrum and 4 µg/mL (≈ 12.1 µM) against Candida albicans [9]. The selectivity ratio came to 10.1 in [3], 0.9 in data set [4] and 7.1 in data set [5]. This compound had an IC50 with Vero of 22.3 µg/mL (≈ 67.2 µM).

As to `CC(C)=CCCc1ccc2c(c1)C(=O)C(Cl)=CC2=O`, the MIC90 with Fusarium oxysporum was 32 µg/mL (≈ 116 µM); in the data set with Aspergillus flavus, more than 32 µg/mL; in data set [1] it was 6.4 µg/mL (≈ 23.3 µM); against Candida tropicalis [2], more than 32 µg/mL; with Aspergillus terreus it was more than 32 µg/mL; in the data set on Clavispora lusitaniae, 3.2 µg/mL (≈ 11.6 µM). The MIC90 was 11.3 µg/mL (≈ 41.1 µM) in the data set on Candida tropicalis [6]; more than 32 µg/mL against Aspergillus niger; more than 32 µg/mL with Candida albicans [7]; 4 µg/mL (≈ 14.6 µM) against Candida parapsilosis [8]; 2.4 µg/mL (≈ 8.74 µM) with Pichia kudriavzevii; 11.3 µg/mL (≈ 41.1 µM) in the data set on Aspergillus fumigatus. Also, the MIC90 against Trichophyton rubrum was 4 µg/mL (≈ 14.6 µM); against Candida albicans [9], more than 32 µg/mL. In addition, the figures for the selectivity ratio in data set [10], in data set [4] and in data set [11] were 10.9, 1.4 and 6.5, respectively. For the same compound, the IC50 in the data set on Vero worked out at 26.1 µg/mL (≈ 95 µM).

With `C[C@@H]1[C@H](O)[C@@H](C)/C=C/C=C/C=C/C=C/C=C/C=C/C=C/[C@H](O[C@@H]2O[C@H](C)[C@@H](O)[C@H](N)[C@@H]2O)C[C@@H]2O[C@](O)(C[C@@H](O)C[C@@H](O)[C@H](O)CC[C@@H](O)C[C@@H](O)CC(=O)O[C@H]1C)C[C@H](O)[C@H]2C(=O)O` [AMPHOTERICIN B], the MIC90 in the data set on Aspergillus flavus is 4 µg/mL (≈ 4.33 µM); in data set [1] it was less than 0.004 µg/mL; against Candida parapsilosis [8], 2 µg/mL (≈ 2.16 µM); with Pichia kudriavzevii, 2 µg/mL (≈ 2.16 µM); in the data set on Aspergillus fumigatus it was 2 µg/mL (≈ 2.16 µM); with Trichophyton rubrum, less than 0.004 µg/mL. For the same compound, the midpoint of inhibition in the data set on Vero, the IC50, lay at 28.6 µg/mL (≈ 30.9 µM). In addition, the selectivity ratio in data set [12] turned out to be 7.1. Also, in the data set with Candida parapsilosis [13], the result was Active.

As to `COc1ccc(NC2=C(Cl)C(=O)c3cc(CCCC(C)C)ccc3C2=O)cc1`, the MIC90 in the data set with Fusarium oxysporum was more than 32 µg/mL; in the data set on Aspergillus flavus it was more than 32 µg/mL; in data set [1], 5 µg/mL (≈ 12.6 µM); with Candida tropicalis [2] it was more than 32 µg/mL; in the data set with Aspergillus terreus, more than 32 µg/mL; against Clavispora lusitaniae, 16 µg/mL (≈ 40.2 µM). Besides, the MIC90 is 32 µg/mL (≈ 80.4 µM) in the data set with Candida tropicalis [6]; more than 32 µg/mL against Aspergillus niger; more than 32 µg/mL in the data set with Candida albicans [7]; more than 32 µg/mL in the data set with Candida parapsilosis [8]; more than 32 µg/mL against Pichia kudriavzevii; more than 32 µg/mL in the data set with Aspergillus fumigatus. For the same compound, the MIC90 is 12.7 µg/mL (≈ 31.9 µM) against Trichophyton rubrum and more than 32 µg/mL in the data set on Candida albicans [9]. The selectivity ratio is 2.2 in [3] and 7.1 in data set [5]. The same compound registered an IC50 in the data set with Vero of 35.6 µg/mL (≈ 89.5 µM).

Consider `CC(C)CCCc1ccc2c(c1)C(=O)C(Cl)=C(Cl)C2=O`, for which the MIC90 in the data set on Fusarium oxysporum was more than 32 µg/mL; with Aspergillus flavus it was more than 32 µg/mL; in [1], 4 µg/mL (≈ 12.9 µM); against Candida tropicalis [2], more than 32 µg/mL; in the data set on Aspergillus terreus, more than 32 µg/mL; against Clavispora lusitaniae it was 20.2 µg/mL (≈ 64.9 µM). Moreover, the MIC90 in the data set on Candida tropicalis [6] is more than 32 µg/mL; against Aspergillus niger, more than 32 µg/mL; with Candida albicans [7], more than 32 µg/mL; against Candida parapsilosis [8], more than 32 µg/mL; with Pichia kudriavzevii, more than 32 µg/mL; against Aspergillus fumigatus it was 8 µg/mL (≈ 25.7 µM). Also, the MIC90 against Trichophyton rubrum is 4 µg/mL (≈ 12.9 µM); in the data set with Candida albicans [9], more than 32 µg/mL. Moreover, the selectivity ratio is more than 9.9 in data set [3], more than 25 in data set [4], more than 50 in data set [5] and more than 50 in data set [11]. The compound further came in with an IC50 in the data set on Vero not below 200 µg/mL.

For the compound `CC1(C)CCCc2cc3c(cc21)C(=O)C=C(Cl)C3=O`, the MIC90 in the data set with Fusarium oxysporum is 16 µg/mL (≈ 58.2 µM); in the data set with Aspergillus flavus, more than 32 µg/mL; in data set [1], 3.2 µg/mL (≈ 11.6 µM); in the data set with Candida tropicalis [2] it was 12.7 µg/mL (≈ 46.2 µM); with Aspergillus terreus, more than 32 µg/mL; in the data set with Clavispora lusitaniae, 5 µg/mL (≈ 18.2 µM). Besides, the MIC90 is 8 µg/mL (≈ 29.1 µM) in the data set on Candida tropicalis [6]; more than 32 µg/mL with Aspergillus niger; 16 µg/mL (≈ 58.2 µM) with Candida albicans [7]; 4 µg/mL (≈ 14.6 µM) with Candida parapsilosis [8]; 2 µg/mL (≈ 7.28 µM) with Pichia kudriavzevii; 16 µg/mL (≈ 58.2 µM) in the data set on Aspergillus fumigatus. Moreover, the MIC90 worked out at 5 µg/mL (≈ 18.2 µM) in the data set on Trichophyton rubrum and 20.2 µg/mL (≈ 73.5 µM) with Candida albicans [9]. Further, the selectivity ratio was more than 12.5 in data set [10], more than 1.6 in data set [4] and more than 7.8 in data set [5]. Also, in the data set on Vero, the IC50 worked out at 109 µg/mL (≈ 397 µM). Further, the outcome in the data set on Candida parapsilosis [14] was inactive. Also, the result with Candida parapsilosis [13] was Active.

For the compound `CC1(C)CCCc2cc3c(cc21)C(=O)C(Cl)=C(Cl)C3=O`, the MIC90 against Fusarium oxysporum was more than 32 µg/mL; in the data set on Aspergillus flavus, 4.8 µg/mL (≈ 15.5 µM); in data set [1], 6.1 µg/mL (≈ 19.7 µM); in the data set with Candida tropicalis [2], more than 32 µg/mL; in the data set on Aspergillus terreus it was more than 32 µg/mL; against Clavispora lusitaniae, 2 µg/mL (≈ 6.47 µM). Also, the MIC90 is 5 µg/mL (≈ 16.2 µM) against Candida tropicalis [6]; more than 32 µg/mL against Aspergillus niger; 8 µg/mL (≈ 25.9 µM) with Candida albicans [7]; 2 µg/mL (≈ 6.47 µM) with Candida parapsilosis [8]; 1 µg/mL (≈ 3.23 µM) in the data set on Pichia kudriavzevii; 8 µg/mL (≈ 25.9 µM) with Aspergillus fumigatus. Also, the MIC90 in the data set with Trichophyton rubrum was 8 µg/mL (≈ 25.9 µM); with Candida albicans [9], more than 32 µg/mL. The selectivity ratio in [10] was more than 25; in data set [3] it was more than 12.5; in data set [12], more than 5.2; in data set [15], more than 12.5. The compound also registered an IC50 with Vero not above 25 µg/mL. Moreover, the result in the data set on Candida parapsilosis [14] was inactive. Also, the result in the data set with Candida parapsilosis [13] was Active.

These data come from ChEMBL document CHEMBL2417537, “Synthesis and antifungal activity of terpenyl-1,4-naphthoquinone and 1,4-anthracenedione derivatives” (Eur J Med Chem, 2013).
